According to ChEMBL document CHEMBL1201862, “PubChem BioAssay data set” (2004):
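Compound exposure: 48 hours, 5 concentrations, 96-well plates. GI50 = concentration required for 50% inhibition of growth.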 The source made the active and inactive calls. No stated cut-off is given here; in the data, active = GI50 up to about 1.1 µM and inactive = higher.

Tests used:
Test in all cases: NCI-60 cell line screen, 48 h
DMS-114 = test system: DMS-114
SNB-78 = test system: SNB-78
DLD-1 = test system: DLD-1
LXFL 529 = test system: LXFL 529
XF498 = test system: XF498
RXF 631 = test system: RXF 631
HOP-18 = test system: HOP-18
KM-20L2 = test system: KM-20L2
DMS-273 = test system: DMS-273

| SMILES | GI50 (DMS-114) | GI50 (SNB-78) | GI50 (DLD-1) | GI50 (LXFL 529) | GI50 (XF498) | GI50 (RXF 631) | GI50 (HOP-18) | GI50 (KM-20L2) | GI50 (DMS-273) |
| --- | --- | --- | --- | --- | --- | --- | --- | --- | --- |
| FC(F)(F)c1nc2ccc3[nH]c4c(-c5ccccc5)nccc4c3c2[nH]1 | > 45.4 µM (inactive) | > 100 µM (inactive) | > 100 µM (inactive) | > 100 µM (inactive) | > 100 µM (inactive) | > 100 µM (inactive) | > 100 µM (inactive) | > 100 µM (inactive) | – |
| CC1CCC2(OCCO2)[C@]2(C)CC(O)C(=O)C=C12 (stereo partly drawn) | > 100 µM (inactive) | – | > 100 µM (inactive) | > 100 µM (inactive) | > 100 µM (inactive) | – | > 100 µM (inactive) | – | > 100 µM (inactive) |
| Cc1ccc(S(=O)(=O)N/N=C\c2c3ccccc3[n+](C)c3ccccc23)cc1 | 24.9 µM (inactive) | 61.7 µM (inactive) | 38.1 µM (inactive) | – | – | – | – | 31.7 µM (inactive) | 22.1 µM (inactive) |
| O=C(O/N=C1/CCCC/C1=C\c1ccccc1)c1ccc(Cl)cc1 | – | > 100 µM (inactive) | > 100 µM (inactive) | 48 µM (inactive) | 0.439 µM (active) | – | > 100 µM (inactive) | > 100 µM (inactive) | > 100 µM (inactive) |
| C/C(CN1C(=O)c2ccccc2C1=O)=N\NS(=O)(=O)c1ccc(Cl)cc1 | – | > 100 µM (inactive) | > 100 µM (inactive) | > 100 µM (inactive) | > 100 µM (inactive) | > 100 µM (inactive) | > 100 µM (inactive) | > 100 µM (inactive) | > 100 µM (inactive) |
| C=C1C(=O)C23C(O)C1CC[C@H]2C12CCCC(C)(COC(C)=O)[C@H]1[C@H](O)[C@]3(O)OC2 (stereo partly drawn) | 1.87 µM (inactive) | 0.653 µM (active) | 0.577 µM (active) | 0.427 µM (active) | 1.4 µM (inactive) | – | 1.27 µM (inactive) | 1.56 µM (inactive) | 1.94 µM (inactive) |
| O=C1[C@H]2ON(c3ccccc3)C(c3ccccc3)[C@H]2C(=O)N1c1ccc(Cc2ccc(N3C(=O)[C@@H]4ON(c5ccccc5)C(c5ccccc5)[C@@H]4C3=O)cc2)cc1 (stereo partly drawn) | > 100 µM (inactive) | > 100 µM (inactive) | > 100 µM (inactive) | > 100 µM (inactive) | – | > 100 µM (inactive) | > 100 µM (inactive) | > 100 µM (inactive) | > 100 µM (inactive) |
| Cc1nc2ccccc2c(=O)n1/N=C(\N=N\c1cc(Cl)ccc1Cl)c1cccc(-c2ccco2)c1 | 41.4 µM (inactive) | – | 87.9 µM (inactive) | – | – | > 100 µM (inactive) | > 100 µM (inactive) | – | 63.2 µM (inactive) |
| CC1(Cl)C(=O)NC(=O)N([C@H]2C[C@H](O)[C@@H](CO)O2)C1N=[N+]=[N-] (stereo partly drawn) | > 94.8 µM (inactive) | > 100 µM (inactive) | > 100 µM (inactive) | > 100 µM (inactive) | > 100 µM (inactive) | > 100 µM (inactive) | > 100 µM (inactive) | > 100 µM (inactive) | > 100 µM (inactive) |
| c1cnc2nc3n(c2c1)CSC3 | > 100 µM (inactive) | > 100 µM (inactive) | > 100 µM (inactive) | > 100 µM (inactive) | > 100 µM (inactive) | – | – | > 100 µM (inactive) | – |
| CC(=O)c1cc2c3c(c1)c1cc4c(cc1c(=O)n3CC2)OCO4 | 37.7 µM (inactive) | > 100 µM (inactive) | 15.2 µM (inactive) | 10.4 µM (inactive) | > 100 µM (inactive) | 21.5 µM (inactive) | 13.5 µM (inactive) | 23.7 µM (inactive) | 7 µM (inactive) |
| CC1(C)OCN(c2ccc(N3CCOCC3)cc2)Cn2c1nc1ccccc12 | > 100 µM (inactive) | > 100 µM (inactive) | > 100 µM (inactive) | > 100 µM (inactive) | – | – | > 100 µM (inactive) | > 100 µM (inactive) | 80.9 µM (inactive) |
| O=[N+]([O-])c1nccn1COCCI | > 100 µM (inactive) | > 100 µM (inactive) | > 100 µM (inactive) | > 100 µM (inactive) | > 100 µM (inactive) | – | – | > 100 µM (inactive) | > 100 µM (inactive) |
| O=S(=O)(N/N=C/c1ccc(Cl)c(Cl)c1)c1ccccc1 | 23.8 µM (inactive) | 41.5 µM (inactive) | 31.3 µM (inactive) | 30.4 µM (inactive) | 32.2 µM (inactive) | – | 36.3 µM (inactive) | 62.1 µM (inactive) | 37.7 µM (inactive) |
| COc1ccc(CC2NCCc3c2[nH]c2ccccc32)cc1 (stereo not drawn) | 33.1 µM (inactive) | 70.6 µM (inactive) | > 100 µM (inactive) | 62.4 µM (inactive) | 16.9 µM (inactive) | 25.3 µM (inactive) | – | 33.7 µM (inactive) | 26.5 µM (inactive) |
| CCOC(=O)Nc1ccc(S(=O)(=O)I)cc1.CCOC(=O)Nc1ccc(S(=O)(=O)I)cc1.CN(C=O)C1=C(N(C)C=O)C(N(C)C=O)=C(N(C)C=O)C(=O)C1=O | > 100 µM (inactive) | > 100 µM (inactive) | – | > 100 µM (inactive) | > 100 µM (inactive) | > 100 µM (inactive) | > 100 µM (inactive) | > 100 µM (inactive) | – |
| CC(=O)C1C(=O)C(=O)N(CCN2C(=O)C(=O)C(C(C)=O)C2=O)C1=O (stereo not drawn) | > 100 µM (inactive) | – | – | > 100 µM (inactive) | > 100 µM (inactive) | > 100 µM (inactive) | > 100 µM (inactive) | > 100 µM (inactive) | > 100 µM (inactive) |
| CCc1c(OC(C)=O)c2c(NC3OC(COC(C)=O)C(OC(C)=O)C(OC(C)=O)C3OC(C)=O)nc(OC)nc2oc1=O (stereo not drawn) | > 100 µM (inactive) | > 100 µM (inactive) | > 100 µM (inactive) | > 100 µM (inactive) | > 100 µM (inactive) | – | > 100 µM (inactive) | > 100 µM (inactive) | > 100 µM (inactive) |
| CC(=O)OC12CCCCC1C1(CCCC1)NC2=O (stereo not drawn) | > 100 µM (inactive) | > 100 µM (inactive) | > 100 µM (inactive) | > 100 µM (inactive) | > 100 µM (inactive) | – | > 100 µM (inactive) | > 100 µM (inactive) | – |
| CC(C)[C@@H]1C=C(c2ccccc2)c2ccccc2C1C(C#N)(C#N)C(C)C (stereo partly drawn) | 97.7 µM (inactive) | > 100 µM (inactive) | > 100 µM (inactive) | > 100 µM (inactive) | 45 µM (inactive) | – | > 100 µM (inactive) | > 100 µM (inactive) | 48.6 µM (inactive) |
| Cc1cc(O)nc(NN2C(Cl)C(=O)C2c2ccc(Cl)cc2)n1 (stereo not drawn) | 13.5 µM (inactive) | 17.9 µM (inactive) | – | 5.86 µM (inactive) | – | – | 8.55 µM (inactive) | 20.6 µM (inactive) | 11.9 µM (inactive) |
| CC(C)N(C(=O)C12C3C4C5C3C1(C(=O)O)C5C42)C(C)C (stereo not drawn) | > 100 µM (inactive) | > 100 µM (inactive) | > 100 µM (inactive) | > 100 µM (inactive) | > 100 µM (inactive) | > 100 µM (inactive) | – | > 100 µM (inactive) | > 100 µM (inactive) |
| COc1c(C2=NC(C(C)C)CO2)ccc2ccccc12 (stereo not drawn) | – | 79.4 µM (inactive) | 16.1 µM (inactive) | 19.2 µM (inactive) | 30.4 µM (inactive) | 39.5 µM (inactive) | – | 42.1 µM (inactive) | 23 µM (inactive) |
| COc1cccc(N2C(=O)[C@H]3[C@H]4CC(C(C)(C)C)CC[C@H]4c4c([nH]c5ccccc45)[C@H]3C2=O)c1 (stereo partly drawn) | 17.7 µM (inactive) | 14.5 µM (inactive) | 22.5 µM (inactive) | 20 µM (inactive) | – | 17.6 µM (inactive) | – | – | 18.3 µM (inactive) |
